In test [1] the test system is HCV genotype 1a (H77 strain) replicon in HUH-7 cells. The test can be described thus: HCV replicon luciferase reporter assay, genotype 1a. Type of test: cell-based. Particulars: Hepatitis C virus, Huh-7, 72 h, HCV genotype 1a replicon luciferase assay, 3 days incubation, range class, read-out: LE_1a (EC50, range). In outline:
(§1)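 Replicon inhibition for both genotypes was measured as Renilla luciferase signal (EnduRen, 7.5 μM final, 2 h) after 3-day, 37° C exposure of replicon-bearing HUH-7 cells in 4% FCS DMEM, 0.5% DMSO. The 1b construct carries S1179I; the 1a H77 construct carries P1496L and S2204I. Twenty-point, 3-fold dilutions were fitted four-parametrically for EC50, and CC50 was taken from multiplexed Cell Titer-Blue.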
Background: Replicon systems follow genome replication, usually without infectious particles.

Test [2] relates to HCV genotype 1b (Con1) replicon in HUH-7 cells. The test can be described thus: HCV replicon luciferase reporter assay, genotype 1b. Type of test: cell-based. The conditions noted are these: Hepatitis C virus, Huh-7, 72 h, HCV genotype 1b replicon luciferase assay, 3 days incubation, range class, read-out: LE_1b (EC50, range). In outline:
as §1

As usually defined, the EC50 is the concentration needed to bring the measured effect to its halfway point. For the compound `C[C@@H]1CC/C=C\[C@@H]2C[C@@]2(C(=O)NS(=O)(=O)C2CC2)NC(=O)[C@@H]2C[C@@H](Oc3nc(OCC(F)F)cc4c(Cl)cccc34)CN2C(=O)[C@@H](NC(=O)OC(C)(C)C)[C@H](C)C1` [Compound 1076, tert-butyl ((2R,6S,7R,9R,13aS,14aR,16aS,Z)-2-((5-chloro-3-(2,2-difluoroethoxyl)isoquinolin-1-yl)oxy)-14a-((cyclopropylsulfonyl)carbamoyl)-7,9-dimethyl-5,16-dioxo-1,2,3,5,6,7,8,9,10,11,13a,14,14a,15,16,16a-hexadecahydrocyclopropa[e]pyrrolo[1,2-a][1,4]diazacyclopentadecin-6-yl)carbamate], the concentration giving a half-maximal response (EC50) in test [1] and in test [2] was less than 5.46 nM in each case.

As to `CCCOc1cc2c(Cl)cccc2c(O[C@@H]2C[C@H]3C(=O)N[C@]4(C(=O)NS(=O)(=O)C5(C)CC5)C[C@H]4/C=C\CC[C@H](C)C[C@@H](C)[C@H](NC(=O)OC(C)(C)C(F)(F)F)C(=O)N3C2)n1` [Compound 1077, 1,1,1-trifluoro-2-methylpropan-2-yl((2R,6S,7R,9S,13aS,14aR,16aS,Z)-2-((5-chloro-3-propoxyisoquinolin-1-yl)oxy)-7,9-dimethyl-14a-(((1-methylcyclopropyl)sulfonyl)carbamoyl)-5,16-dioxo-1,2,3,5,6,7,8,9,10,11,13a,14,14a,15,16,16a-hexadecahydrocyclopropa[e]pyrrolo[1,2-a][1,4]diazacyclopentadecin-6-yl)carbamate], the results for the EC50 in test [1] and in test [2] were 4.82 to 103 nM and less than 5.46 nM, respectively.

Turning to `CCCOc1cc2c(Cl)cccc2c(O[C@@H]2C[C@H]3C(=O)N[C@]4(C(=O)NS(=O)(=O)C5(C)CC5)C[C@H]4/C=C\CC[C@@H](C)C[C@@H](C)[C@H](NC(=O)OC(C)(C)C(F)(F)F)C(=O)N3C2)n1` [Compound 1078, 1,1,1-trifluoro-2-methylpropan-2-yl((2R,6S,7R,9R,13aS,14aR,16aS,Z)-2-((5-chloro-3-propoxyisoquinolin-1-yl)oxy)-7,9-dimethyl-14a-(((1-methylcyclopropyl)sulfonyl)carbamoyl)-5,16-dioxo-1,2,3,5,6,7,8,9,10,11,13a,14,14a,15,16,16a-hexadecahydrocyclopropa[e]pyrrolo[1,2-a][1,4]diazacyclopentadecin-6-yl)carbamate], the EC50 in test [1] and in test [2] was less than 5.46 nM each time.

With `CCCOc1cc2c(Cl)cccc2c(O[C@@H]2C[C@H]3C(=O)N[C@]4(C(=O)NS(=O)(=O)C5(C)CC5)C[C@H]4/C=C\CC[C@H](C)C[C@@H](C)[C@H](NC(=O)O[C@H](C)C(F)(F)F)C(=O)N3C2)n1` [Compound 1079, (R)-1,1,1-trifluoropropan-2-yl ((2R,6S,7R,9S,13aS,14aR,16aS,Z)-2-((5-chloro-3-propoxyisoquinolin-1-yl)oxy)-7,9-dimethyl-14a-(((1-methylcyclopropyl)sulfonyl)carbamoyl)-5,16-dioxo-1,2,3,5,6,7,8,9,10,11,13a,14,14a,15,16,16a-hexadecahydrocyclopropa[e]pyrrolo[1,2-a][1,4]diazacyclopentadecin-6-yl)carbamate], the EC50 in test [1] is 4.82 to 103 nM; in test [2], less than 5.46 nM.

As to `CCCOc1cc2c(Cl)cccc2c(O[C@@H]2C[C@H]3C(=O)N[C@]4(C(=O)NS(=O)(=O)C5(C)CC5)C[C@H]4/C=C\CC[C@@H](C)C[C@@H](C)[C@H](NC(=O)O[C@H](C)C(F)(F)F)C(=O)N3C2)n1` [Compound 1080, (R)-1,1,1-trifluoropropan-2-yl ((2R,6S,7R,9R,13aS,14aR,16aS,Z)-2-((5-chloro-3-propoxyisoquinolin-1-yl)oxy)-7,9-dimethyl-14a-(((1-methylcyclopropyl)sulfonyl)carbamoyl)-5,16-dioxo-1,2,3,5,6,7,8,9,10,11,13a,14,14a,15,16,16a-hexadecahydrocyclopropa[e]pyrrolo[1,2-a][1,4]diazacyclopentadecin-6-yl)carbamate], the EC50 in test [1] and in test [2] was less than 5.46 nM in each case.

For the compound `CCCOc1cc2c(Cl)cccc2c(O[C@@H]2C[C@H]3C(=O)N[C@]4(C(=O)NS(=O)(=O)C5CC5)C[C@H]4/C=C\CC[C@H](C)C[C@@H](C)[C@H](NC(=O)O[C@H](C)C(F)(F)F)C(=O)N3C2)n1` [Compound 1081, (R)-1,1,1-trifluoropropan-2-yl ((2R,6S,7R,9S,13aS,14aR,16aS,Z)-2-((5-chloro-3-propoxyisoquinolin-1-yl)oxy)-14a-((cyclopropylsulfonyl)carbamoyl)-7,9-dimethyl-5,16-dioxo-1,2,3,5,6,7,8,9,10,11,13a,14,14a,15,16,16a-hexadecahydrocyclopropa[e]pyrrolo[1,2-a][1,4]diazacyclopentadecin-6-yl)carbamate], the figures for the EC50 in test [1] and in test [2] were 4.82 to 103 nM and less than 5.46 nM, respectively.

For the compound `CCCOc1cc2c(Cl)cccc2c(O[C@@H]2C[C@H]3C(=O)N[C@]4(C(=O)NS(=O)(=O)C5CC5)C[C@H]4/C=C\CC[C@@H](C)C[C@@H](C)[C@H](NC(=O)O[C@H](C)C(F)(F)F)C(=O)N3C2)n1` [Compound 1082, (R)-1,1,1-trifluoropropan-2-yl ((2R,6S,7R,9R,13aS,14aR,16aS,Z)-2-((5-chloro-3-propoxyisoquinolin-1-yl)oxy)-14a-((cyclopropylsulfonyl)carbamoyl)-7,9-dimethyl-5,16-dioxo-1,2,3,5,6,7,8,9,10,11,13a,14,14a,15,16,16a-hexadecahydrocyclopropa[e]pyrrolo[1,2-a][1,4]diazacyclopentadecin-6-yl)carbamate], the concentration for a half-maximal effect (EC50) in test [1] and in test [2] was less than 5.46 nM in each case.

Turning to `CCCOc1cc2c(Cl)cccc2c(O[C@@H]2C[C@H]3C(=O)N[C@]4(C(=O)NS(=O)(=O)C5CC5)C[C@H]4/C=C\CC[C@H](C)C[C@@H](C)[C@H](NC(=O)OC(C)(C)C(F)(F)F)C(=O)N3C2)n1` [Compound 1083, 1,1,1-trifluoro-2-methylpropan-2-yl((2R,6S,7R,9S,13aS,14aR,16aS,Z)-2-((5-chloro-3-propoxyisoquinolin-1-yl)oxy)-14a-((cyclopropylsulfonyl)carbamoyl)-7,9-dimethyl-5,16-dioxo-1,2,3,5,6,7,8,9,10,11,13a,14,14a,15,16,16a-hexadecahydrocyclopropa[e]pyrrolo[1,2-a][1,4]diazacyclopentadecin-6-yl)carbamate], the 50% effective concentration (EC50) in test [1] is 4.82 to 103 nM; in test [2], less than 5.46 nM.

`CCCOc1cc2c(Cl)cccc2c(O[C@@H]2C[C@H]3C(=O)N[C@]4(C(=O)NS(=O)(=O)C5CC5)C[C@H]4/C=C\CC[C@@H](C)C[C@@H](C)[C@H](NC(=O)OC(C)(C)C(F)(F)F)C(=O)N3C2)n1` [Compound 1084, 1,1,1-trifluoro-2-methylpropan-2-yl((2R,6S,7R,9R,13aS,14aR,16aS,Z)-2-((5-chloro-3-propoxyisoquinolin-1-yl)oxy)-14a-((cyclopropylsulfonyl)carbamoyl)-7,9-dimethyl-5,16-dioxo-1,2,3,5,6,7,8,9,10,11,13a,14,14a,15,16,16a-hexadecahydrocyclopropa[e]pyrrolo[1,2-a][1,4]diazacyclopentadecin-6-yl)carbamate]: the EC50 in test [1] and in test [2] was less than 5.46 nM in each case.

Consider `CCCOc1cc2c(Cl)cccc2c(O[C@@H]2C[C@H]3C(=O)N[C@]4(C(=O)NS(=O)(=O)C5CC5)C[C@H]4/C=C\CC[C@H](C)C[C@@H](C)[C@H](NC(=O)OC4C[C@@H]5C[C@H]5C4)C(=O)N3C2)n1` [Compound 1085, (1S,5S)-bicyclo[3.1.0]hexan-3-yl((2R,6S,7R,9S,13aS,14aR,16aS,Z)-2-((5-chloro-3-propoxyisoquinolin-1-yl)oxy)-14a-((cyclopropylsulfonyl)carbamoyl)-7,9-dimethyl-5,16-dioxo-1,2,3,5,6,7,8,9,10,11,13a,14,14a,15,16,16a-hexadecahydrocyclopropa[e]pyrrolo[1,2-a][1,4]diazacyclopentadecin-6-yl)carbamate], for which the EC50 in test [1] and in test [2] was less than 5.46 nM each time.

Regarding `CCCOc1cc2c(Cl)cccc2c(O[C@@H]2C[C@H]3C(=O)N[C@]4(C(=O)NS(=O)(=O)C5CC5)C[C@H]4/C=C\CC[C@@H](C)C[C@@H](C)[C@H](NC(=O)OC4C[C@@H]5C[C@H]5C4)C(=O)N3C2)n1` [Compound 1086, (1S,5S)-bicyclo[3.1.0]hexan-3-yl((2R,6S,7R,9R,13aS,14aR,16aS,Z)-2-((5-chloro-3-propoxyisoquinolin-1-yl)oxy)-14a-((cyclopropylsulfonyl)carbamoyl)-7,9-dimethyl-5,16-dioxo-1,2,3,5,6,7,8,9,10,11,13a,14,14a,15,16,16a-hexadecahydrocyclopropa[e]pyrrolo[1,2-a][1,4]diazacyclopentadecin-6-yl)carbamate], the EC50 in test [1] and in test [2] was less than 5.46 nM throughout.

`CCCOc1cc2c(Cl)cccc2c(O[C@@H]2C[C@H]3C(=O)N[C@]4(C(=O)NS(=O)(=O)C5(C)CC5)C[C@H]4/C=C\CC[C@H](C)C[C@@H](C)[C@H](NC(=O)OC4C[C@@H]5C[C@H]5C4)C(=O)N3C2)n1` [Compound 1087, (1S,5S)-bicyclo[3.1.0]hexan-3-yl((2R,6S,7R,9S,13aS,14aR,16aS,Z)-2-((5-chloro-3-propoxyisoquinolin-1-yl)oxy)-7,9-dimethyl-14a-(((1-methylcyclopropyl)sulfonyl)carbamoyl)-5,16-dioxo-1,2,3,5,6,7,8,9,10,11,13a,14,14a,15,16,16a-hexadecahydrocyclopropa[e]pyrrolo[1,2-a][1,4]diazacyclopentadecin-6-yl)carbamate]: the concentration for a half-maximal effect (EC50) is 4.82 to 103 nM in test [1] and less than 5.46 nM in test [2].

For the origin of these results see US9499550B2 (BRISTOL-MYERS SQUIBB COMPANY, priority 2012, dated 2016).
